Starred links: 1 amine or outer side, 2 acyl side, 3 side chain; linkers in the order of their positions; H or OH if unused. Non-standard residues stand in square brackets, D forms with d. Residues, ends and D or L forms follow the SMILES beside them. Groups on a side chain read outwards from the residue. *: point of attachment. C20 diacid = O=C(O)CCCCCCCCCCCCCCCCCCC(=O)*; γGlu = O=C(O)[C@H](CCC(=O)[*:2])N[*:1]; AEEA = NCCOCCOCC(=O)O; Aib = CC(C)(N)C(=O)O
What was measured:
human GIP R = molecular target: T1, human GIP R (Homo sapiens, UniProt P48546); experiment: cell-based
T1 sequence (P48546 22-466): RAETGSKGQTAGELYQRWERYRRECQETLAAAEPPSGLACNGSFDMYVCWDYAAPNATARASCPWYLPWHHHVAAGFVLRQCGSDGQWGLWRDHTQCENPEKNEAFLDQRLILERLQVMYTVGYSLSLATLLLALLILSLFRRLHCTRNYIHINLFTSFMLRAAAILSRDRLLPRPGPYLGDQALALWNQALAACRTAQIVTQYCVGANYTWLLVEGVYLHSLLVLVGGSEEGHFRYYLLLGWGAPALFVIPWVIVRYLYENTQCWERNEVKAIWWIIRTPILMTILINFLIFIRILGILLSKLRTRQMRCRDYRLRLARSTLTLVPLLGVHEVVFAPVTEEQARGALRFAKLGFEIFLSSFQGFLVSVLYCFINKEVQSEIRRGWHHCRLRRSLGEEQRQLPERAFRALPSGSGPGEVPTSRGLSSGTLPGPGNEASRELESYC

[1] = molecular target: T2, human GIP receptor (GIP R) (Homo sapiens, UniProt P48546); experiment: Activity assay at human GIP receptor, cAMP induction (AlphaScreen), Example 3
T2 sequence (P48546 22-466): T1 sequence (P48546 22-466)

[2] = molecular target: human GLP-1 receptor (GLP-1R) (Homo sapiens, UniProt P43220); experiment: Activity assay at human GLP-1 receptor, cAMP induction (AlphaScreen), Example 3
Chain of human GLP-1 receptor (GLP-1R) (P43220 24-463): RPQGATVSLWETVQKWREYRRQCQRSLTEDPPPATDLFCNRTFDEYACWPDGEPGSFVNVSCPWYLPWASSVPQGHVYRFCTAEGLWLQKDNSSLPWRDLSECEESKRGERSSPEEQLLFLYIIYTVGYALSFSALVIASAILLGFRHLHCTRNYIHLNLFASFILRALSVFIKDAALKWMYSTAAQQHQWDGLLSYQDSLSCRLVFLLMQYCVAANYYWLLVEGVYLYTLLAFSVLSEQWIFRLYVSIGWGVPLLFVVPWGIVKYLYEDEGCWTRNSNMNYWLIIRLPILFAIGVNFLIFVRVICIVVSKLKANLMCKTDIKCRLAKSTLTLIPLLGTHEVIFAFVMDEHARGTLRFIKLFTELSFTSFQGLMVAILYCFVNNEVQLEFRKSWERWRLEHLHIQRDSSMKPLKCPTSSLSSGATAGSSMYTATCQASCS

| SMILES | EC50 (human GIP R) [nM] | EC50 [1] [nM] | EC50 [2] [nM] |
| --- | --- | --- | --- |
| CC[C@H](C)[C@H](NC(=O)[C@H](CO)NC(=O)[C@H](Cc1ccc(O)cc1)NC(=O)[C@H](CC(=O)O)NC(=O)[C@H](CO)NC(=O)[C@@H](NC(=O)[C@H](Cc1ccccc1)NC(=O)[C@@H](NC(=O)CNC(=O)[C@H](CCC(=O)O)NC(=O)C(C)(C)NC(=O)[C@@H](N)Cc1ccc(O)cc1)[C@@H](C)O)[C@@H](C)CC)C(=O)N[C@@H](CCC(=O)O)C(=O)N[C@@H](CC(C)C)C(=O)N[C@@H](CC(=O)O)C(=O)N[C@@H](CCCCN)C(=O)N[C@@H](CCCCNC(=O)COCCOCCNC(=O)COCCOCCNC(=O)CC[C@H](NC(=O)CCCCCCCCCCCCCCCCCCC(=O)O)C(=O)O)C(=O)N[C@@H](C)C(=O)N[C@@H](C)C(=O)N[C@@H](CCC(N)=O)C(=O)N[C@@H](CC(=O)O)C(=O)N[C@@H](Cc1ccccc1)C(=O)N[C@H](C(=O)N[C@@H](CC(N)=O)C(=O)N[C@@H](Cc1c[nH]c2ccccc12)C(=O)N[C@@H](CC(C)C)C(=O)N[C@@H](CC(C)C)C(=O)N[C@@H](C)C(=O)N[C@@H](C)C(=O)NCC(=O)N1CCC[C@H]1C(=O)N[C@@H](CO)C(=O)N[C@@H](CO)C(=O)NCC(=O)N[C@@H](C)C(=O)N1CCC[C@H]1C(=O)N1CCC[C@H]1C(=O)N1CCC[C@H]1C(=O)N[C@@H](CO)C(N)=O)C(C)C [Compound 30] (H-Y[Aib]EGTFISDYSIELDKK([AEEA-AEEA-γGlu-C20 diacid])AAQDFVNWLLAAGPSSGAPPPS-NH2) | 0.009 | 0.014 | > 10 |
| CC[C@H](C)[C@H](NC(=O)[C@H](Cc1ccccc1)NC(=O)[C@H](CC(=O)O)NC(=O)[C@H](CCC(N)=O)NC(=O)[C@H](C)NC(=O)[C@H](C)NC(=O)[C@H](CCCCNC(=O)COCCOCCNC(=O)COCCOCCNC(=O)CC[C@H](NC(=O)CCCCCCCCCCCCCCCCCCC(=O)O)C(=O)O)NC(=O)[C@H](CCCCN)NC(=O)[C@H](CC(=O)O)NC(=O)[C@H](CC(C)C)NC(=O)[C@H](CCC(=O)O)NC(=O)[C@@H](NC(=O)[C@H](CO)NC(=O)[C@H](Cc1ccc(O)cc1)NC(=O)[C@H](CC(=O)O)NC(=O)[C@H](CO)NC(=O)[C@@H](NC(=O)[C@H](Cc1ccccc1)NC(=O)[C@@H](NC(=O)CNC(=O)[C@H](CCC(=O)O)NC(=O)C(C)(C)NC(=O)[C@@H](N)Cc1ccc(O)cc1)[C@@H](C)O)[C@@H](C)CC)[C@@H](C)CC)C(=O)N[C@@H](CC(N)=O)C(=O)N[C@@H](Cc1c[nH]c2ccccc12)C(=O)N[C@@H](CC(C)C)C(=O)N[C@@H](CC(C)C)C(=O)N[C@@H](C)C(=O)NCC(=O)N1CCC[C@H]1C(=O)N[C@@H](CO)C(=O)N[C@@H](CO)C(=O)NCC(=O)N[C@@H](C)C(=O)N1CCC[C@H]1C(=O)N1CCC[C@H]1C(=O)N1CCC[C@H]1C(=O)N[C@@H](CO)C(N)=O [Compound 31] (H-Y[Aib]EGTFISDYSIELDKK([AEEA-AEEA-γGlu-C20 diacid])AAQDFINWLLAGPSSGAPPPS-NH2) | 0.012 | 0.009 | > 100 |
| CC[C@H](C)[C@H](NC(=O)[C@H](Cc1ccccc1)NC(=O)[C@H](CC(=O)O)NC(=O)[C@H](CCC(N)=O)NC(=O)[C@H](C)NC(=O)[C@H](C)NC(=O)[C@H](CCCCNC(=O)COCCOCCNC(=O)COCCOCCNC(=O)CC[C@H](NC(=O)CCCCCCCCCCCCCCCCCCC(=O)O)C(=O)O)NC(=O)[C@H](CCCCN)NC(=O)[C@H](CC(=O)O)NC(=O)[C@H](CC(C)C)NC(=O)[C@H](CCC(=O)O)NC(=O)[C@@H](NC(=O)[C@H](CO)NC(=O)[C@H](Cc1ccc(O)cc1)NC(=O)[C@H](CC(=O)O)NC(=O)[C@H](CO)NC(=O)[C@@H](NC(=O)[C@H](Cc1ccccc1)NC(=O)[C@@H](NC(=O)CNC(=O)[C@H](CCC(=O)O)NC(=O)C(C)(C)NC(=O)[C@@H](N)Cc1ccc(O)cc1)[C@@H](C)O)[C@@H](C)CC)[C@@H](C)CC)C(=O)N[C@@H](CCC(=O)O)C(=O)N[C@@H](Cc1c[nH]c2ccccc12)C(=O)N[C@@H](CC(C)C)C(=O)N[C@@H](CC(C)C)C(=O)N[C@@H](C)C(=O)NCC(=O)N1CCC[C@H]1C(=O)N[C@@H](CO)C(=O)N[C@@H](CO)C(=O)NCC(=O)N[C@@H](C)C(=O)N1CCC[C@H]1C(=O)N1CCC[C@H]1C(=O)N1CCC[C@H]1C(=O)N[C@@H](CO)C(N)=O [Compound 32] (H-Y[Aib]EGTFISDYSIELDKK([AEEA-AEEA-γGlu-C20 diacid])AAQDFIEWLLAGPSSGAPPPS-NH2) | 0.02 | 0.012 | > 100 |
| CC[C@H](C)[C@H](NC(=O)[C@H](CCCCNC(=O)COCCOCCNC(=O)COCCOCCNC(=O)CC[C@H](NC(=O)CCCCCCCCCCCCCCCCCCC(=O)O)C(=O)O)NC(=O)[C@H](CC(=O)O)NC(=O)[C@H](CC(C)C)NC(=O)[C@H](CCC(=O)O)NC(=O)[C@@H](NC(=O)[C@H](CO)NC(=O)[C@H](Cc1ccc(O)cc1)NC(=O)[C@H](CC(=O)O)NC(=O)[C@H](CO)NC(=O)[C@@H](NC(=O)[C@H](Cc1ccccc1)NC(=O)[C@@H](NC(=O)CNC(=O)[C@H](CCC(=O)O)NC(=O)C(C)(C)NC(=O)[C@@H](N)Cc1ccc(O)cc1)[C@@H](C)O)[C@@H](C)CC)[C@@H](C)CC)C(=O)N[C@@H](C)C(=O)N[C@@H](CCC(N)=O)C(=O)N[C@@H](CCCNC(=N)N)C(=O)N[C@@H](C)C(=O)N[C@@H](Cc1ccccc1)C(=O)N[C@H](C(=O)N[C@@H](CCC(=O)O)C(=O)N[C@@H](Cc1c[nH]c2ccccc12)C(=O)N[C@@H](CC(C)C)C(=O)N[C@@H](CC(C)C)C(=O)N[C@@H](C)C(=O)N[C@@H](CCC(N)=O)C(=O)NCC(=O)N1CCC[C@H]1C(=O)N[C@@H](CO)C(=O)N[C@@H](CO)C(=O)NCC(=O)N[C@@H](C)C(=O)N1CCC[C@H]1C(=O)N1CCC[C@H]1C(=O)N1CCC[C@H]1C(=O)N[C@@H](CO)C(N)=O)[C@@H](C)CC [Compound 34] (H-Y[Aib]EGTFISDYSIELDK([AEEA-AEEA-γGlu-C20 diacid])IAQRAFIEWLLAQGPSSGAPPPS-NH2) | 0.011 | 0.017 | > 10 |
| CC[C@H](C)[C@H](NC(=O)[C@H](Cc1ccccc1)NC(=O)[C@H](C)NC(=O)[C@H](CCCNC(=N)N)NC(=O)[C@H](CCC(N)=O)NC(=O)[C@H](C)NC(=O)[C@H](CCCCNC(=O)COCCOCCNC(=O)COCCOCCNC(=O)CC[C@H](NC(=O)CCCCCCCCCCCCCCCCCCC(=O)O)C(=O)O)NC(=O)[C@H](CCCCN)NC(=O)[C@H](CC(=O)O)NC(=O)[C@H](CC(C)C)NC(=O)[C@H](CCC(=O)O)NC(=O)[C@@H](NC(=O)[C@H](CO)NC(=O)[C@H](Cc1ccc(O)cc1)NC(=O)[C@H](CC(=O)O)NC(=O)[C@H](CO)NC(=O)[C@@H](NC(=O)[C@H](Cc1ccccc1)NC(=O)[C@@H](NC(=O)CNC(=O)[C@H](CCC(=O)O)NC(=O)[C@@H](C)NC(=O)[C@@H](N)Cc1ccc(O)cc1)[C@@H](C)O)[C@@H](C)CC)[C@@H](C)CC)C(=O)N[C@@H](CCC(=O)O)C(=O)N[C@@H](Cc1c[nH]c2ccccc12)C(=O)N[C@@H](CC(C)C)C(=O)N[C@@H](CC(C)C)C(=O)N[C@@H](C)C(=O)N[C@@H](CCC(N)=O)C(=O)NCC(=O)N1CCC[C@H]1C(=O)N[C@@H](CO)C(=O)N[C@@H](CO)C(=O)NCC(=O)N[C@@H](C)C(=O)N1CCC[C@H]1C(=O)N1CCC[C@H]1C(=O)N1CCC[C@H]1C(=O)N[C@@H](CO)C(N)=O [Compound 36] (H-Y[dA]EGTFISDYSIELDKK([AEEA-AEEA-γGlu-C20 diacid])AQRAFIEWLLAQGPSSGAPPPS-NH2) | 0.006 | 0.006 | > 10 |

— US12703729B2, “GIP agonist compounds and methods” (Zealand Pharma A/S, priority 2014, dated 2026)
